In patent publication EP3452027B1, “USE OF […] TREAT SEA LICE” (priority 2016, dated 2017):
In brackets after ≈: the same amount, converted by molar mass. Where two headings read alike, the source gives them in different places.

Legend:
[1] = system: Lepeophtheirus salmonis sea lice
[2] = system: Argulus; details: for Argulus detachment from goldfish and koi carp: after two hours
[3] = system: Lepeophtheirus salmonis sea lice; assay: whole plant or invertebrate; details: 24 h
[4] = system: fish embryos; details: 100µM bergapten; cited from earlier work

Structure (SMILES): C=C(C)[C@@H]1CCC2=CC(=O)C[C@@H](C)[C@]2(C)C1 [nootkatone]
- concentrations at which no viable sea lice were observed ([1]; 24 hours post-exposure, microscopic observation): ≥ 38 mg/L
- Males EC90 ([1]; adult male L. salmonis, 24 hours post exposure): 24.27 µg/mL
- Females LC50 ([1]; female, Lepeophtheirus salmonis (sea louse), in vivo): 9.70 µg/mL
- Males LC50 ([1]; male, Lepeophtheirus salmonis (sea louse), in vivo): 16.40 µg/mL
- Argulus detachment from goldfish and koi carp ([2]; 2ppm nootkatone in tap water): no parasites could be seen
- Argulus detachment from goldfish and koi carp ([2]; 6ppm nootkatone in tap water): no parasites could be seen
- mortality of Argulus ([2]; in vivo): 100%
- EC50 ([3]; read-out: Females EC50): 9.17 µg/mL (≈ 42 µM)
- EC90 ([3]; read-out: Females EC90, adult female (pre-ovigerous) L. salmonis, 24 hours post exposure): 13.4 µg/mL (≈ 61.5 µM)
- LC50 ([3]; read-out: Females LC50): 9.69 µg/mL (≈ 44.4 µM)
- LC50 ([3]; read-out: LC50 for the total sea lice population (dose that would kill 50% of the total population)): 13.5 µg/mL (≈ 62 µM)
- EC50 ([3]; read-out: Males EC50): 11.5 µg/mL (≈ 52.9 µM)
- EC90 ([3]; read-out: Males EC90, adult male L. salmonis, 24 hours post exposure): 24.3 µg/mL (≈ 111 µM)
- LC50 ([3]; read-out: Males LC50): 16.4 µg/mL (≈ 75.1 µM)

Structure (SMILES): COc1c2ccoc2cc2oc(=O)ccc12 [bergapten, 5-methoxypsoralen]
- fish embryos killed [4]: one third
- remaining viable embryos with defects in anterior-posterior patterning [4]: half
